Assay results: patent US20230278972A1, “SUBSTITUTED HALOALKYL SULFONANILIDE HERBICIDES” (FMC Corporation, priority 2020, published 2023)

Tests used:
Format in all cases: in vivo
[1] = system: barnyardgrass (Echinochloa crus-galli); experiment: Test A preemergence, barnyardgrass; settings: Preemergence; for Barnyardgrass plant response rating: visual injury on 0 to 100 scale (0 no effect, 100 complete control), approximately 10 days; for Plant response rating, Barnyardgrass: 0 to 100 scale (0 no effect, 100 complete control)
Outline: (§1)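 Pots: loam soil/sand blend. Pre: directed soil spray at planting. Post: plants 2–10 cm, 1–2 leaf stage. Formulation: non-phytotoxic solvent + surfactant.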

kochia (Bassia scoparia) [2] = experiment: Test A preemergence, kochia; settings: Preemergence; for Kochia plant response rating: visual injury on 0 to 100 scale (0 no effect, 100 complete control), approximately 10 days; for Plant response rating, Kochia: 0 to 100 scale (0 no effect, 100 complete control)
Outline: as §1

[3] = system: ragweed (common ragweed, Ambrosia artemisiifolia); experiment: Test A preemergence, ragweed; settings: Preemergence; for Ragweed plant response rating: visual injury on 0 to 100 scale (0 no effect, 100 complete control), approximately 10 days; for Plant response rating, Ragweed: 0 to 100 scale (0 no effect, 100 complete control)
Outline: as §1

[4] = system: Ryegrass, Italian (Italian ryegrass, Lolium multiflorum); experiment: Test A preemergence, Ryegrass, Italian; settings: Preemergence; for Ryegrass, Italian plant response rating: visual injury on 0 to 100 scale (0 no effect, 100 complete control), approximately 10 days; for Plant response rating, Ryegrass, Italian: 0 to 100 scale (0 no effect, 100 complete control)
Outline: as §1

[5] = system: Foxtail, Giant (giant foxtail, Setaria faberi); experiment: Test A preemergence, Foxtail, Giant; settings: Preemergence; for Foxtail, Giant plant response rating: visual injury on 0 to 100 scale (0 no effect, 100 complete control), approximately 10 days; for Plant response rating, Foxtail, Giant: 0 to 100 scale (0 no effect, 100 complete control)
Outline: as §1

[6] = system: pigweed (Amaranthus retroflexus); experiment: Test A preemergence, pigweed; settings: for Pigweed plant response rating: visual injury on 0 to 100 scale (0 no effect, 100 complete control), approximately 10 days; for Plant response rating, Pigweed: 0 to 100 scale (0 no effect, 100 complete control)
Outline: (§2)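 Directed soil spray at planting gave the preemergence treatment, while foliar application to one- to two-leaf seedlings (2–10 cm) gave the postemergence one; pots held a loam and sand mixture and chemicals were carried in a non-phytotoxic solvent with surfactant.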

[7] = system: barnyardgrass (Echinochloa crus-galli); experiment: Test A postemergence, barnyardgrass; settings: Postemergence, 0 to 100 scale (0 no effect, 100 complete control)
Outline: as §2

kochia (Bassia scoparia) [8] = experiment: Test A postemergence, kochia; settings: Postemergence
Outline: as §1

[9] = system: ragweed (common ragweed, Ambrosia artemisiifolia); experiment: Test A postemergence, ragweed; settings: Postemergence
Outline: as §1

[10] = system: Ryegrass, Italian (Italian ryegrass, Lolium multiflorum); experiment: Test A postemergence, Ryegrass, Italian; settings: Postemergence
Outline: as §1

[11] = system: Foxtail, Giant (giant foxtail, Setaria faberi); experiment: Test A postemergence, Foxtail, Giant; settings: Postemergence
Outline: as §1

[12] = system: pigweed (Amaranthus retroflexus); experiment: Test A postemergence, pigweed; settings: Postemergence
Outline: as §1

[13] = system: wheat (Triticum aestivum); experiment: Test A postemergence, wheat; settings: Postemergence
Outline: as §2

corn (Zea mays) = experiment: Test A postemergence, corn; settings: Postemergence
Outline: as §1

[14] = system: blackgrass (Alopecurus myosuroides); experiment: Test A postemergence, blackgrass; settings: Postemergence, 0 to 100 scale (0 no effect, 100 complete control)
Outline: as §1

[15] = system: galium (catchweed bedstraw, Galium aparine); experiment: Test A postemergence, galium; settings: Postemergence
Outline: as §2

[16] = 125 g ai/ha, visual injury approx. 10 days
[17] = 500 g ai/ha, visual injury vs untreated controls after approx. 10 days
[18] = 125 g ai/ha, visual injury approx. 10 days, 0 to 100 scale (0 no effect, 100 complete control)
[19] = 500 g ai/ha, visual injury vs untreated controls after approx. 10 days, 0 to 100 scale (0 no effect, 100 complete control)
[20] = 31 g ai/ha, visual injury, approx. 10 days
[21] = 31 g ai/ha, visual injury on 0 to 100 scale (0 no effect, 100 complete control), approx. 10 days
[22] = 125 g ai/ha, 0 to 100 scale (0 no effect, 100 complete control)
[23] = 125 g ai/ha, visual injury, approx. 10 days
[24] = 500 g ai/ha, visual injury approx. 10 days
[25] = 500 g ai/ha, visual injury approx. 10 days, 0 to 100 scale (0 no effect, 100 complete control)
[26] = 1000 g ai/ha, visual injury, approx. 10 days
[27] = 1000 g ai/ha, visual injury, 0 to 100 scale (0 no effect, 100 complete control), approx. 10 days

## Cc1c(NS(=O)(=O)C(F)(F)F)cc(C(=O)N2CCC(F)CC2)c(C)c1F [Compound 109]
[1]; 125 g ai/ha
  Barnyardgrass plant response rating: 90
[1]; 500 g ai/ha
  Plant response rating, Barnyardgrass: 100
Kochia (Bassia scoparia) [2]; 125 g ai/ha
  Kochia plant response rating: 90
Kochia (Bassia scoparia) [2]; 500 g ai/ha
  Plant response rating, Kochia: 100
[3]; 125 g ai/ha
  Ragweed plant response rating: 90
[3]; 500 g ai/ha
  Plant response rating, Ragweed: 90
[4]; 125 g ai/ha
  Ryegrass, Italian plant response rating: 70
[4]; 500 g ai/ha
  Plant response rating, Ryegrass, Italian: 80
[5]; 125 g ai/ha
  Foxtail, Giant plant response rating: 100
[5]; 500 g ai/ha
  Plant response rating, Foxtail, Giant: 100
[6]; 125 g ai/ha
  Pigweed plant response rating: 100
[6]; 500 g ai/ha
  Plant response rating, Pigweed: 100
[7]; [16]
  Plant response rating, Barnyardgrass: 0
[7]; [17]
  Barnyardgrass plant response rating: 70
Kochia (Bassia scoparia) [8]; [18]
  Plant response rating, Kochia: 10
Kochia (Bassia scoparia) [8]; [19]
  Kochia plant response rating: 40
[9]; [18]
  Plant response rating, Ragweed: 70
[9]; [19]
  Ragweed plant response rating: 80
[10]; [18]
  Plant response rating, Ryegrass, Italian: 40
[10]; [19]
  Ryegrass, Italian plant response rating: 60
[11]; [18]
  Plant response rating, Foxtail, Giant: 0
[11]; [19]
  Foxtail, Giant plant response rating: 40
[12]; [18]
  Plant response rating, Pigweed: 50
[12]; [19]
  Pigweed plant response rating: 80
[13]; [18]
  Plant response rating, Wheat: 30
[13]; [19]
  Wheat plant response rating: 70
Corn (Zea mays); [18]
  Plant response rating, Corn: 0
Corn (Zea mays); [19]
  Corn plant response rating: 40
[14]; [16]
  Plant response rating, Blackgrass: 10
[14]; [17]
  Blackgrass plant response rating: 10
[15]; [18]
  Plant response rating, Galium: 80
[15]; [19]
  Galium plant response rating: 90

## Cc1cc(C)c(N(COC(=O)C2CCCCC2)S(=O)(=O)C(F)(F)F)cc1C1=NOC2(CCCC2)C1 [Compound 148]
[1]; [20]
  Plant response rating, Barnyardgrass: 20
[1]; 125 g ai/ha
  Barnyardgrass plant response rating: 80
Kochia (Bassia scoparia) [2]; [20]
  Plant response rating, Kochia: 20
Kochia (Bassia scoparia) [2]; 125 g ai/ha
  Kochia plant response rating: 30
[3]; [20]
  Plant response rating, Ragweed: 0
[3]; 125 g ai/ha
  Ragweed plant response rating: 20
[4]; [20]
  Plant response rating, Ryegrass, Italian: 30
[4]; 125 g ai/ha
  Ryegrass, Italian plant response rating: 100
[5]; [20]
  Plant response rating, Foxtail, Giant: 40
[5]; 125 g ai/ha
  Foxtail, Giant plant response rating: 100
[6]; [20]
  Plant response rating, Pigweed: 30
[6]; 125 g ai/ha
  Pigweed plant response rating: 100
[7]; 31 g ai/ha
  Plant response rating, Barnyardgrass: 0
[7]; 125 g ai/ha
  Plant response rating, Barnyardgrass: 10
Kochia (Bassia scoparia) [8]; [21]
  Plant response rating, Kochia: 0
Kochia (Bassia scoparia) [8]; [22]
  Plant response rating, Kochia: 20
[9]; [21]
  Plant response rating, Ragweed: 0
[9]; [22]
  Plant response rating, Ragweed: 0
[10]; [21]
  Plant response rating, Ryegrass, Italian: 0
[10]; [22]
  Plant response rating, Ryegrass, Italian: 0
[11]; [21]
  Plant response rating, Foxtail, Giant: 0
[11]; [22]
  Plant response rating, Foxtail, Giant: 0
[12]; [21]
  Plant response rating, Pigweed: 40
[12]; [22]
  Plant response rating, Pigweed: 40
[13]; [21]
  Plant response rating, Wheat: 0
[13]; [22]
  Plant response rating, Wheat: 0
Corn (Zea mays); [21]
  Plant response rating, Corn: 0
Corn (Zea mays); [22]
  Plant response rating, Corn: 0
[14]; 31 g ai/ha
  Plant response rating, Blackgrass: 0
[14]; 125 g ai/ha
  Plant response rating, Blackgrass: 0
[15]; [21]
  Plant response rating, Galium: 0
[15]; [22]
  Plant response rating, Galium: 20

## Cc1cc(Cl)c(C(=O)N2CCOCC2)cc1NS(=O)(=O)C(F)(F)F [Compound 248]
[1]; [23]
  Plant response rating, Barnyardgrass: 80
[1]; 500 g ai/ha
  Barnyardgrass plant response rating: 90
Kochia (Bassia scoparia) [2]; [23]
  Plant response rating, Kochia: 90
Kochia (Bassia scoparia) [2]; 500 g ai/ha
  Kochia plant response rating: 90
[3]; [23]
  Plant response rating, Ragweed: 80
[3]; 500 g ai/ha
  Ragweed plant response rating: 90
[4]; [23]
  Plant response rating, Ryegrass, Italian: 70
[4]; 500 g ai/ha
  Ryegrass, Italian plant response rating: 90
[5]; [23]
  Plant response rating, Foxtail, Giant: 40
[5]; 500 g ai/ha
  Foxtail, Giant plant response rating: 80
[6]; [23]
  Plant response rating, Pigweed: 90
[6]; 500 g ai/ha
  Pigweed plant response rating: 90
[7]; 125 g ai/ha
  Plant response rating, Barnyardgrass: 60
[7]; [24]
  Plant response rating, Barnyardgrass: 90
Kochia (Bassia scoparia) [8]; [22]
  Plant response rating, Kochia: 60
Kochia (Bassia scoparia) [8]; [25]
  Plant response rating, Kochia: 90
[9]; [22]
  Plant response rating, Ragweed: 90
[9]; [25]
  Plant response rating, Ragweed: 90
[10]; [22]
  Plant response rating, Ryegrass, Italian: 0
[10]; [25]
  Plant response rating, Ryegrass, Italian: 70
[11]; [22]
  Plant response rating, Foxtail, Giant: 20
[11]; [25]
  Plant response rating, Foxtail, Giant: 50
[12]; [22]
  Plant response rating, Pigweed: 80
[12]; [25]
  Plant response rating, Pigweed: 80
[13]; [22]
  Plant response rating, Wheat: 40
[13]; [25]
  Plant response rating, Wheat: 60
Corn (Zea mays); [22]
  Plant response rating, Corn: 0
Corn (Zea mays); [25]
  Plant response rating, Corn: 0
[14]; 125 g ai/ha
  Plant response rating, Blackgrass: 0
[14]; [24]
  Plant response rating, Blackgrass: 60
[15]; [22]
  Plant response rating, Galium: 70
[15]; [25]
  Plant response rating, Galium: 90

## Cc1cc(C)c(C(=O)N2CCC(C#N)CC2)cc1NS(=O)(=O)C(F)(F)F [Compound 11]
[1]; 1000 g ai/ha
  Plant response rating, Barnyardgrass: 100
Kochia (Bassia scoparia) [2]; 1000 g ai/ha
  Plant response rating, Kochia: 90
[3]; 1000 g ai/ha
  Plant response rating, Ragweed: 80
[4]; 1000 g ai/ha
  Plant response rating, Ryegrass, Italian: 0
[5]; 1000 g ai/ha
  Plant response rating, Foxtail, Giant: 100
[6]; 1000 g ai/ha
  Plant response rating, Pigweed: 100
[7]; [26]
  Plant response rating, Barnyardgrass: 90
Kochia (Bassia scoparia) [8]; [27]
  Plant response rating, Kochia: 60
[9]; [27]
  Plant response rating, Ragweed: 80
[10]; [27]
  Plant response rating, Ryegrass, Italian: 70
[11]; [27]
  Plant response rating, Foxtail, Giant: 90
[12]; [27]
  Plant response rating, Pigweed: 100
[13]; [27]
  Plant response rating, Wheat: 80
Corn (Zea mays); [27]
  Plant response rating, Corn: 60
[14]; [26]
  Plant response rating, Blackgrass: 50
[15]; [27]
  Plant response rating, Galium: 90
